In the supplement of paper PMC10627819:

How the values were obtained:
S. aureus DSM 20231 [1] = assay: Bliss interaction score (quartile over a dose matrix) (fitness difference); higher = more antagonism (negative = synergy)
How it was run: (§1)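 OD595 was read at entry into stationary phase and expressed relative to the robust mean of the no-drug wells on the same plate, capped at 1. The resulting ratio is the fitness value. The Bliss score, observed fitness minus product-based expected fitness with single-drug fitness inferred from combinations, is summarised by quartiles over technical, biological and donor/recipient replicates.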

B. subtilis 168 [2] = assay: as above
How it was run: as §1

S. aureus Newman [3] = assay: as above
How it was run: as §1

S. pneumoniae D39V [4] = assay: as above
How it was run: as §1

S. aureus DSM 20231 [5] = assay: fitness (endpoint OD595 vs no drug) (fraction); higher = more growth
How it was run: (§2)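 Background-subtracted growth curves were the basis for fitness, taken as the optical density at entry into stationary phase over the robust mean of no-drug control wells. A cap of 1 was applied. The curves came from OD595 readings every 30 min for 14 h at 37 °C, in 384-well plates seeded at OD595 0.01 with 30 µl, or 55 µl for S. pneumoniae.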

B. subtilis 168 [6] = assay: as above
How it was run: as §2

S. aureus Newman [7] = assay: as above
How it was run: as §2

S. pneumoniae D39V [8] = assay: as above
How it was run: as §2
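For Bliss interaction score (quartile over a dose matrix) in this document: first quartile when negative (synergy) and third quartile when positive (antagonism).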

CCCCCCCCCC(=O)N[C@@H](Cc1c[nH]c2ccccc12)C(=O)N[C@H](CC(N)=O)C(=O)N[C@@H](CC(=O)O)C(=O)N[C@@H]1C(=O)NCC(=O)N[C@@H](CCCN)C(=O)N[C@@H](CC(=O)O)C(=O)N[C@H](C)C(=O)N[C@@H](CC(=O)O)C(=O)NCC(=O)N[C@H](CO)C(=O)N[C@@H]([C@H](C)CC(=O)O)C(=O)N[C@@H](CC(=O)c2ccccc2N)C(=O)O[C@@H]1C [Daptomycin] + Cc1onc(-c2ccccc2)c1C(=O)N[C@@H]1C(=O)N2[C@@H]1SC(C)(C)[C@@H]2C(=O)O [Oxacillin]
Details	Bliss interaction score
B. subtilis 168 [2]	0.0697
S. aureus DSM 20231 [1]	-0.0408
S. aureus Newman [3]	0.0785
S. pneumoniae D39V [4]	0.0877

fitness, one replicate
Details	first compound 0.125 µg/mL	first compound 0.25 µg/mL	first compound 0.5 µg/mL	first compound 1 µg/mL
B. subtilis 168 [6], partner 0.0078 µg/mL	–	0.878	0.894	0.662
B. subtilis 168 [6], partner 0.0155 µg/mL	–	0.975	0.87	0.657
B. subtilis 168 [6], partner 0.031 µg/mL	–	0.888	0.832	0.302
B. subtilis 168 [6], partner 0.075 µg/mL	0.618	0.686	0.395	–
B. subtilis 168 [6], partner 0.15 µg/mL	0.0439	0.032	0.0273	–
B. subtilis 168 [6], partner 0.3 µg/mL	0.0398	0.0692	0.0429	–
S. aureus DSM 20231 [5], partner 0.0156 µg/mL	0.728	0.737	–	–
S. aureus DSM 20231 [5], partner 0.0312 µg/mL	0.677	0.722	–	–
S. aureus DSM 20231 [5], partner 0.0625 µg/mL	0.531	0.515	–	–

fitness
Details	first compound 0.125 µg/mL	first compound 0.25 µg/mL	first compound 0.5 µg/mL	first compound 1 µg/mL	first compound 2 µg/mL	first compound 4 µg/mL
B. subtilis 168 [6], partner 0.002 µg/mL	0.979	0.99	0.938	–	–	–
B. subtilis 168 [6], partner 0.004 µg/mL	0.996	0.959	0.877	–	–	–
B. subtilis 168 [6], partner 0.008 µg/mL	0.899	0.921	0.856	–	–	–
S. aureus DSM 20231 [5], partner 0.0156 µg/mL	–	–	0.864	0.889	0.794	–
S. aureus DSM 20231 [5], partner 0.0312 µg/mL	–	–	0.768	0.716	0.721	–
S. aureus DSM 20231 [5], partner 0.0625 µg/mL	–	–	0.502	0.501	0.537	–
S. aureus Newman [7], partner 0.0156 µg/mL	0.863	0.82	0.785	–	–	–
S. aureus Newman [7], partner 0.0312 µg/mL	0.752	0.751	0.768	–	–	–
S. aureus Newman [7], partner 0.0625 µg/mL	0.656	0.664	0.674	–	–	–
S. pneumoniae D39V [8], partner 0.005 µg/mL	–	–	–	≥ 1	0.999	0.949
S. pneumoniae D39V [8], partner 0.01 µg/mL	–	–	–	0.951	0.97	0.956
S. pneumoniae D39V [8], partner 0.02 µg/mL	–	–	–	0.904	0.908	0.895
S. pneumoniae D39V [8], partner 0.04 µg/mL	–	–	–	0.377	0.382	0.505
